“Also recorded” adds a separate entry of the source. Read-outs that look alike come from different tables or passages of the source. Ends that are not written are not given here.
What was measured:
[1] = test system: membrane receptor; conditions: cited from earlier work
[2] = test system: cells; conditions: compared with HN; cited from earlier work
[3] = test system: DOX-induced cardiotoxicity; test: Example 1: heart weight and echocardiogram in DOX ± HNG treated mice; assay type: in vivo, mouse
Experimental: The heart containing left and right ventricles were fixed with formalin for hematoxylin/eosin and trichrome staining and TUNEL to detect apoptotic cell. Heart sections were saved for immunohistochemistry. Pieces of left ventricle were fixed with gluteraldehyde for later mitochondria analysis by EM. Heart was snapped frozen and stored at −80 degrees (left and right atriums plus the rest of ventricles) for molecular studies (e.g. ANP/BNP).
Echocardiogram was performed on three mice from each group on day 32, and the rest of the mice on days 34 and 38. […] However when corrected for body weight, the heart: body weight ratio was not different among the groups (FIGS. 3A & 3B.)

[4] = mouse, in vivo
[5] = test system: uncoupling protein 2 (Ucp2); test: Example 3: Ucp2 protein by ProteinSimple (Wes) assay in ventricle lysates; assay type: in vivo, mouse
Experimental: Left ventricle samples from mice were sonicated in RIPA buffer (Sigma) supplemented with EDTA-free protease inhibitor cocktail tablets (Roche), and cell debris removed by centrifugation. The protein concentration was analyzed by Bio-Rad Protein Assay and measured by Beckman Du-640 Spectrophotometer.
Protein measurement for the uncoupling protein 2 (Ucp2) was performed using ventricle tissue lysates from control, Dox only, Dox+HNG, Dox+DRZ, and Dox+HNG+DRZ treated mice. Protein expression was quantified by Wes Separation Module with 25 Capillary Cartridges for 12-230 kDa (Wes®). Proteins (4 microgram/sample) were separated through a size-resolving matrix in capillaries, immobilized to the inner capillary wall, incubated with anti-Ucp2 rabbit monoclonal antibody (Cell Signaling) at concentration of 1 μg/ml and anti-rabbit secondary antibodies before detection using chemiluminescence. Signals reflected as the area under the curve of Ucp2 protein were generated automatically at the end of the run. The Ucp2 protein levels were quantified by a ratio of the area under the curve from each sample that was normalized by the corresponding area under the curve of the corresponding total protein.

[6] = patients with cancer, cited from earlier work
[7] = Example 1: DOX ± HNG in B16 cell transplanted mice study, body weight and survival; conditions: for Body weight: B16 inoculated C57BL/6 male mice, DOX 5 mg/Kg weekly IP, HNG 5 mg/Kg daily IP
Experimental: Mouse B16 melanoma cells were cultured in 75 cm^2 flasks and incubated at 37° C. in a humidified chamber with 5% CO2 to generate enough cells for inoculating 10,000 cells/mouse×40 mice. After 5-7 days culture, B16 cells were collected and cell viability determined using the Trypan Blue stain and the number of living cells were counted under microscope.
Treatment Schedule: 7 weeks old C57BL/6 male mouse, control without tumor inoculation (n=6) and four other groups (n=10 each group) received B16 tumor cells (10,000/mouse) injection under the skin in the right flank. One group was not treated; another group received HNG IP injection, 5 mg/Kg BM, daily×40 days (HNG); the third group received Doxorubicin (DOX), IP injection, 5 mg/Kg BW, weekly×6 injections; and the last group DOX+HNG (Table 5).
The mice in the DOX treated group would receive 6 weekly injections of DOX and daily injection of HNG until Day 40. Body weights and tumor cell injection site were checked 3 times per week. Echocardiogram was scheduled at day 26 and repeated at day 40. Twenty four hours after echocardiogram examination, animals were sacrificed; whole blood, plasma, epididymis, heart, lung, testis, liver, spleen, kidney, intestine, muscle, skin, and femur bone were collected. Sperm in the cauda epididymis were counted and COMET assay for DNA damage of sperm assessed. Whole blood was collected for CBC analysis and plasma saved for measurement of HNG level or other bio-parameters. Testes were fixed in Bouin's or formaldehyde for immunohistochemistry and TUNEL analyses.

[8] = test system: cardiomyocytes; test: Example 3: cardiomyocyte apoptosis by tropomyosin/TUNEL co-localization; conditions: for cardiomyocytes apoptosis: ten weeks, compared to control
[9] = test system: cardiac fibrosis; test: Example 3: Masson's Trichrome quantification of fibrosis in hearts; conditions: for cardiac fibrosis: compared to controls
[10] = test system: DOX induced cardiotoxicity; test: Example 2: echocardiogram ejection fraction, Dox, HNG and DRZ alone or in combinations; assay type: in vivo, mouse
Experimental: In this second experiment, adult male mice were used. These mice received for 8 weeks IP injections of saline daily (control), Doxorubicin (DOX 3 mg/week IP for 8 injections), HNG 5 mg/day IP), Dexrazoxane (DRZ 60 mg/week IP at the same time as Doxorubicin) either alone or in combinations as shown in FIG. 5. All animals received 8 weeks of injections.

[11] = test system: Atrial Natriuretic Factor (ANF); test: Example 3: real-time PCR of ANF transcripts in left ventricular tissue; conditions: for expression levels of ANF mRNA: heart, compared to control
[12] = Example 3: outcome and general health (deaths, body weight, heart weight)
[13] = test system: Dox-induced cardiotoxicity mouse model; test: Example 3: M-mode echocardiography of cardiac function
[14] = test system: nuclear-gene-encoded mitochondrial gene expression; test: Example 3: mitochondrial gene focused qRT-PCR array of mouse hearts
[15] = target: BAX (Homo sapiens, UniProt Q07812); conditions: cited from earlier work
[16] = test system: cardiomyocytes; conditions: mouse, in vivo
[17] = test system: cardiac fibrosis; conditions: mouse, in vivo
[18] = test system: Dox-induced cardiotoxicity mouse model; conditions: in vivo
[19] = test system: Atrial Natriuretic Factor (ANF); conditions: mouse, in vivo
[20] = cited from earlier work
[21] = target: IGFBP-3 (Homo sapiens, UniProt P17936); conditions: cited from earlier work
[22] = echocardiogram days 32-38, vs non-treated and HNG treated mice
[23] = 84 genes examined, threshold of 1.1 fold
[24] = positive up-regulation, negative down-regulation

Chain of IGFBP-3 (P17936 28-291, species assumed): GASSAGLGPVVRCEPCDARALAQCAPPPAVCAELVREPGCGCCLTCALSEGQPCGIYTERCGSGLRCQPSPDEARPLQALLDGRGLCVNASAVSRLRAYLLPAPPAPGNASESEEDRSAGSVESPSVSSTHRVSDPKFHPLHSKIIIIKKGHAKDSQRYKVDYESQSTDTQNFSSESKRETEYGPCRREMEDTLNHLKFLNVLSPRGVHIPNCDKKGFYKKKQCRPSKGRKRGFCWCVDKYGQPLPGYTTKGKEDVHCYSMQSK
Chain of BAX (Q07812 whole entry, species assumed): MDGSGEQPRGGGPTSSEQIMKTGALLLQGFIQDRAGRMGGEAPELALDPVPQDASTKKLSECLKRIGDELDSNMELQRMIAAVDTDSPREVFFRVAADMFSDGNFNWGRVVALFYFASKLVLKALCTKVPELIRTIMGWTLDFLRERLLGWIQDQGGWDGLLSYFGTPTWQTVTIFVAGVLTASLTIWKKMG

HN-S7A: HN mutant, Ser7 to Ala; MAPRGFACLLLLTSEIDLPVKRRA (SEQ ID NO: 35)
Characteristics: membrane receptor binding [1]: Loss of membrane receptor | Cytoprotective Action [2]: Not effective, prevents HN self-

COc1cccc2c1C(=O)c1c(O)c3c(c(O)c1C2=O)C[C@@](O)(C(=O)CO)C[C@@H]3O[C@H]1C[C@H](N)[C@H](O)[C@H](C)O1 [DOX, Doxorubicin]
Heart weight ([3]; Example 1 mice at sacrifice): significantly lower than the non-treated and HNG treated mice; also recorded: smaller hearts than non-treated and HNG treated mice | ejection fraction [3, 22]: decrease in ejection fraction; also recorded: lower ejection fraction | fractional ventricular shortening [3, 22]: decrease; also recorded: lower fractional shortening | body weight (BW) at the end of 10 weeks [4]: significantly decreased body weight | Ucp2 protein expression ([5]; compared to control): significantly decreased Ucp2 protein expression | incidence of congestive heart failure ([6]; cumulative dose of 400 mg/m^2): 3 to 5% | incidence of congestive heart failure ([6]; cumulative dose of 550 mg/m^2): 7 to 26% | Body weight [7]: started to lose weight at about day 8 to 10; also recorded: significant loss in weight; also recorded: decreased weight | Survival (mice survived / mice in group) ([7]; DOX halted after 4th injection, up to day 38-40): 4/10 | Body weight loss, DOX vs DOX+HNG ([7]; day 29, p<0.05): lost more weight than the mice treated with DOX+HNG; also recorded: losing significantly more weight | cardiomyocytes apoptosis [8]: significantly increased cardiomyocytes apoptosis | cardiac fibrosis [9]: significantly induced a cardiac fibrosis response | Ejection fraction (EF) ([10]; adult male mice, DOX 3 mg/week IP for 8 injections, FIG. 6): highly significant decrease in EF | expression levels of ANF mRNA [11]: significantly increased | mice died before the termination of the experiment ([12]; 10 mice per group, 10 weeks): three | ejection fraction ([13]; 9.5 weeks after treatment): significantly decreased | fractional shortening ([13]; 9.5 weeks after treatment): significantly decreased | heart rate ([13]; 9.5 weeks after treatment): significantly decreased | left ventricle posterior wall thickening ([13]; 9.5 weeks after treatment): significantly decreased | time after Dox treatment until Dox-induced cardiac dysfunction occurred ([13]; accumulative dose of 24 mg/kg body weight in mice): ≥ 8 weeks | number of genes down-regulated as compared to control [14, 23]: 5 genes | number of genes up-regulated as compared to control [14, 23]: 78 genes | number of genes upregulated as compared to control ([14]; 84 genes examined, threshold of 2-fold): 12 genes | Bbc3 Dox-induced gene expression (Fold changes as compared to control) [14, 24]: 3.27 Fold changes | Bcl2 Dox-induced gene expression (Fold changes as compared to control) [14, 24]: 2.23 Fold changes | Cox18 Dox-induced gene expression (Fold changes as compared to control) [14, 24]: 2.01 Fold changes | NefI Dox-induced gene expression (Fold changes as compared to control) [14, 24]: 3.07 Fold changes | Sfn Dox-induced gene expression (Fold changes as compared to control) [14, 24]: 2.55 Fold changes | Slc25a17 Dox-induced gene expression (Fold changes as compared to control) [14, 24]: 2.00 Fold changes | Slc25a20 Dox-induced gene expression (Fold changes as compared to control) [14, 24]: 2.53 Fold changes | Slc25a21 Dox-induced gene expression (Fold changes as compared to control) [14, 24]: 2.35 Fold changes | Slc25a22 Dox-induced gene expression (Fold changes as compared to control) [14, 24]: 3.12 Fold changes | Slc25a23 Dox-induced gene expression (Fold changes as compared to control) [14, 24]: 5.83 Fold changes | Ucp2 Dox-induced gene expression (Fold changes as compared to control) [14, 24]: 2.03 Fold changes | Ucp3 Dox-induced gene expression (Fold changes as compared to control) [14, 24]: 2.73 Fold changes | Ucp2 and Ucp3 mRNA expression ([14]; qRT-PCR, heart): increased Ucp2 and Ucp3 mRNA expression

HN-L12A: HN mutant, Leu12 to Ala (MAPRGFSCLLLATSEIDLPVKRRA; UniProt Q8IVG9 1-24, looked up, variant L12A)
Cytoprotective Action [2]: HN antagonist, forms inactive

HN-C8P: HN mutant, Cys8 to Pro (MAPRGFSPLLLLTSEIDLPVKRRA; UniProt Q8IVG9 1-24, looked up, variant C8P)
Cytoprotective Action [2]: Not effective, blocks intracellular | Characteristics: BAX binding [15]: Loss of BAX binding

HN-C8A: HN mutant, Cys8 to Ala; MAPRGFSALLLLTSEIDLPVKRRA (SEQ ID NO: 33)
Characteristics: membrane receptor binding [1]: Loss of membrane receptor | Cytoprotective Action [2]: Not effective, prevents HN self-

MAPRGFSCLLLLTGEIDLPVKRRA [HNG]
cardiomyocytes apoptosis [16]: did not induce significant levels of cardiomyocytes apoptosis | Body weight [7]: gained weight; also recorded: increased weight | cardiac fibrosis [17]: no changes of fibrosis | cardiac parameters (heart rate, LV posterior wall thickening, fractional shortening, ejection fraction) [18]: did not show any altered cardiac parameters | body weight (BW) at the end of 10 weeks ([12]; surviving mice, compared to control): no significant adverse effect on body weight | expression levels of ANF mRNA [19]: did not significantly altered ANF transcripts

C[C@@H](CN1CC(=O)NC(=O)C1)N1CC(=O)NC(=O)C1 [DRZ, Dexrazoxane]
body weight (BW) at the end of 10 weeks [4]: no significant adverse effect on body weight | Ucp2 protein suppressed by Dox, effect of co-treatment ([5]; Dox-treated mice): significantly normalized Ucp2 protein suppressed by Dox to control levels | Dox-induced cardiomyocytes apoptosis, effect of co-treatment ([8]; Dox-treated mice, ten weeks after treatment): no markedly protective effect | cardiomyocytes apoptosis [8]: did not induce significant levels of cardiomyocytes apoptosis | testicular toxicity ([20]; has been shown): induce testicular toxicity | significant adverse events ([20]; patients receiving high doses of anthracyclines): decreased granulocytes and platelets | cardiac fibrosis [9]: no changes of fibrosis | Dox-induced cardiac fibrosis, effect of co-treatment ([9]; in Dox-treated mice): did not reduce Dox-induced cardiac fibrosis | DOX-induced decrease in EF, effect of co-treatment ([10]; DOX treated mice, HNG 5 mg/day IP, DRZ 60 mg/week IP): ameliorated | Dox-increased ANF expression, effect of addition ([11]; added to Dox-treated mice): returned expression of ANF to control levels | expression levels of ANF mRNA [11]: did not significantly altered ANF transcripts | Dox-induced BW loss, effect of co-treatment ([12]; in Dox-treated mice): attenuated the Dox-induced BW loss | Dox-induced cardiac dysfunction, protective effect ([13]; Dox-treated mice, summary): improved heart function impaired by Dox treatment | cardiac parameters (heart rate, LV posterior wall thickening, fractional shortening, ejection fraction) ([13]; without Dox, compared to controls across the treatment period): did not show any altered cardiac parameters | Dox-induced Ucp2 and Ucp3 mRNA expression, effect of co-treatment ([14]; qRT-PCR, Dox-treated mice): reversed Dox-induced Ucp2 and Ucp3 mRNA expression to control levels

HN-F6A: HN mutant, Phe6 to Ala (MAPRGASCLLLLTSEIDLPVKRRA; UniProt Q8IVG9 1-24, looked up, variant F6A)
Characteristics: IGFBP-3 binding [21]: Loss of IGFBP-3 binding | Cytoprotective Action [2]: Similar/more effective than HN

— US10792331B2, “Methods for reducing cardiotoxicity from chemotherapy by administering humanin analog compositions” (LOS ANGELES BIOMEDICAL RESEARCH INSTITUTE AT HARBOR-UCLA …, priority 2015, dated 2020)
